Measurements as given in patent US6310095A, “Inhibitors of protein isoprenyl transferases” (University of Pittsburgh, priority 1998, dated 2001).
Counter-ions that a name gives are not always drawn.

Target: T1, protein farnesyltransferase (Rattus norvegicus, UniProt Q02293+Q04631)
T1 construct: Rat brain protein farnesyltransferase activity is measured; from tissue; host or cells: rat brain; purified according to Reiss et al., Cell 62:81-88 (1990), steps one through three
Assay: in vitro inhibition of protein farnesyltransferase (scintillation proximity assay, biotin-K Ras B fragment)
Format: biochemical
Conditions: at 1 × 10^-5 M
Method in brief: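 Scintillation proximity read-out of farnesylation, using a biotinylated K Ras B fragment (0.1 mM final) in place of biotin-lamin. Enzyme purified from rat brain; results given as % inhibition.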

Q: For `CSCC[C@H](NC(=O)c1ccc(CNc2ccc(F)cc2)cc1-c1ccccc1)C(=O)O` [Example 687], which inhibition at 10 µM is on record?
A: Its inhibition at 10 µM is 78%.

Q: How did the inhibition at 10 µM turn out when `CSCC[C@H](NC(=O)c1ccc(CNc2cc(C)cc(C)c2)cc1-c1ccccc1)C(=O)O` [Example 709] was run?
A: The inhibition at 10 µM was 55%.

Q: For `CSCC[C@H](NC(=O)c1ccc(CNC(CO)C(O)c2ccccc2)cc1-c1ccccc1)C(=O)O` (stereo partly shown) [Example 713], which inhibition at 10 µM is on record?
A: Its inhibition at 10 µM is 40%.

Same assay, conditions: at 1 × 10^-6 M

Q: Which “% inhibition of farnesyltransferase” value does the source give for `CSCC[C@H](NC(=O)c1ccc(-c2cccc(-c3ccccc3)c2)cc1-c1ccccc1C)C(=O)[O-].[Li+]` [Example 787] here?
A: The value was 70%.

Q: For `CSCC[C@H](NC(=O)c1ccc(/C=C/c2cnc(Oc3ccccc3)cn2)cc1-c1ccccc1C)C(=O)O` [Example 812], which “% inhibition of farnesyltransferase” value is on record?
A: Its value is 94%.

Q: For `CSCC[C@H](NC(=O)c1ccc(OC/C=C(\C)CC/C=C(\C)CCC=C(C)C)cc1-c1ccccc1C)C(=O)O` [Example 547], which “% inhibition of farnesyltransferase” value is on record?
A: Its value is 91%.

Q: Which “% inhibition of farnesyltransferase” value does the source give for `CSCC[C@H](NC(=O)c1ccc(OCCCC2CCCCC2)cc1-c1ccccc1C)C(=O)O` [Example 564] here?
A: Its value is 98%.

Q: How did the “% inhibition of farnesyltransferase” value turn out when `CSCC[C@H](NC(=O)c1ccc(COCc2ccccc2C)cc1-c1ccccc1C)C(=O)[O-].[Li+]` [Example 577] was run?
A: Its value is 94%.

Q: With `CSCC[C@H](NC(=O)c1ccc(CN(C(C)C)C2(CC3CCCCC3)CCC2)cc1-c1ccccc1C)C(=O)O` [Example 332] as the molecule, how does the “% inhibition of farnesyltransferase” value read?
A: The value was 26%.

Q: `CSCC[C@H](NC(=O)c1ccc(/C=C/c2cccc3ccccc23)cc1-c1ccccc1C)C(=O)O` [Example 466] was tested. Which “% inhibition of farnesyltransferase” value did it give?
A: The value was 93%.

Q: With `CSCC[C@H](NC(=O)c1ccc(CN(C2CC2)C2(CC3CCCCC3)CC2)cc1-c1ccccc1C)C(=O)O` [Example 324] as the molecule, how does the “% inhibition of farnesyltransferase” value read?
A: The value was 98%.

Q: With `CSCC[C@H](NC(=O)c1ccc(CN(C(C)C)C(C)(C)Cc2ccccc2)cc1-c1ccccc1C)C(=O)O` [Example 317] as the molecule, how does the “% inhibition of farnesyltransferase” value read?
A: The value was 54%.

Q: Which “% inhibition of farnesyltransferase” value does the source give for `CSCC[C@H](NC(=O)c1ccc(COCc2ccccc2)cc1-c1ccccc1C)C(=O)NS(=O)(=O)c1ccc(C)cc1` [Example 582] here?
A: The value was 99%.

Q: Which “% inhibition of farnesyltransferase” value does the source give for `CSCC[C@H](NC(=O)c1ccc(OCCC23CC4CC(CC(C4)C2)C3)cc1-c1ccccc1C)C(=O)O` [Example 553] here?
A: Its value is 92%.

Q: With `CSCC[C@H](NC(=O)c1ccc(COCC(CC2CCCCC2)CC2CCCCC2)cc1-c1ccccc1C)C(=O)O` [Example 889] as the molecule, how does the “% inhibition of farnesyltransferase” value read?
A: The value was 95%.

Q: For `CSCC[C@H](NC(=O)c1ccc(CN(C(C)C)C2(CC3CCCCC3)CC2)cc1-c1ccccc1C)C(=O)O` [Example 326], which “% inhibition of farnesyltransferase” value is on record?
A: The value was 91%.

Q: With `CSCC[C@H](NC(=O)c1ccc(CSc2nc(O)cc(Cc3ccccc3)n2)cc1-c1ccccc1C)C(=O)O` [Example 744] as the molecule, how does the “% inhibition of farnesyltransferase” value read?
A: Its value is 84%.

Q: Which “% inhibition of farnesyltransferase” value does the source give for `CSCC[C@H](NC(=O)c1ccc(CN2CCC(OCc3ccccc3)C2)cc1-c1ccccc1C)C(=O)O` (stereo partly shown) [Example 988] here?
A: The value was 92%.

Same assay, conditions: at 1 × 10^-6 M; read-out: % inhibition of farnesyltransferase

Q: `CSCC[C@H](NC(=O)c1ccc(CN(Cc2ccccc2)Cc2ccccc2)cc1-c1ccccc1)C(=O)O` [Example 834, N-[4-N,N-dibenzylaminomethyl-2-phenylbenzoyl]methionine lithium salt] was tested. Which inhibition at 1 µM did it give?
A: Its inhibition at 1 µM is 55%.

Q: `CSCC[C@H](NC(=O)c1ccc(CNCCSC(C)(C)C)cc1-c1ccccc1)C(=O)O` [Example 627] was tested. Which inhibition at 1 µM did it give?
A: The inhibition at 1 µM was 85%.

Q: With `CSCC[C@H](NC(=O)c1ccc(CN(Cc2ccccc2)Cc2cccc(Oc3ccccc3)c2)cc1-c1ccccc1C)C(=O)O` [Example 514, N-[4-N-(3-phenoxybenzyl)-N-benzylaminomethyl-2-(2-methylphenyl)benzoyl]methionine lithium salt] as the molecule, how does the inhibition at 1 µM read?
A: The inhibition at 1 µM was 94%.

Q: With `CSCC[C@H](NC(=O)c1ccc(CNCC(O)c2cccc(O)c2)cc1-c1ccccc1)C(=O)O` (stereo partly shown) [Example 661] as the molecule, how does the inhibition at 1 µM read?
A: Its inhibition at 1 µM is 45%.

Q: Which inhibition at 1 µM does the source give for `CSCC[C@H](NC(=O)c1ccc(CN(Cc2ccccc2)c2ccccc2)cc1-c1ccccc1C)C(=O)O` [Example 406, 4-(N-benzyl-N-phenyl)-aminomethyl-2-(2-methylphenyl)benzoylmethionine] here?
A: The inhibition at 1 µM was 95%.

Q: `CSCCC(NC(=O)c1ccc(NC(=O)c2cncnc2)cc1-c1ccccc1)C(=O)O` (stereo not shown) [Example 219, [4-(5-pyrimidylcarboxyamino)-2-phenylbenzoyl]methionine] was tested. Which inhibition at 1 µM did it give?
A: The inhibition at 1 µM was 56%.

Q: With `CSCCC(NC(=O)c1ccc(NC(=O)Cc2cscn2)cc1-c1ccccc1)C(=O)O` (stereo not shown) [Example 162, [4-(thiazo-4-ylmethylcarbonyl)amino-2-phenylbenzoyl]methionine] as the molecule, how does the inhibition at 1 µM read?
A: Its inhibition at 1 µM is 12%.

Q: With `COc1ccccc1CNCc1ccc(C(=O)N[C@@H](CCSC)C(=O)O)c(-c2ccccc2)c1` [Example 650] as the molecule, how does the inhibition at 1 µM read?
A: The inhibition at 1 µM was 68%.

Q: `CSCC[C@H](NC(=O)c1ccc(NCCO)cc1-c1ccccc1)C(=O)O` [Example 502, N-[4-N-2-hydroxyethylamino-2-phenylbenzoyl]methionine] was tested. Which inhibition at 1 µM did it give?
A: The inhibition at 1 µM was 24%.

Q: How did the inhibition at 1 µM turn out when `CSCC[C@H](NC(=O)c1ccc(CN(C(CC2CCCCC2)CC2CCCCC2)S(=O)(=O)c2ccccc2)cc1-c1ccccc1C)C(=O)O` [Example 911, N-[4-(N-Benzenesulfoyl-N-(1,3-Dicyclohexylpropan-2-yl)aminomethyl)-2-(2-methylphenyl)-benzoyl]methionine] was run?
A: Its inhibition at 1 µM is 65%.

Q: For `CSCC[C@H](NC(=O)c1ccc(CNc2ccccc2CCO)cc1-c1ccccc1)C(=O)O` [Example 671], which inhibition at 1 µM is on record?
A: Its inhibition at 1 µM is 36%.

Same assay, conditions: at 1 × 10^-7 M

Q: With `CSCC[C@H](NC(=O)c1ccc(COCc2ccc(-c3ccccc3C(F)(F)F)o2)cc1-c1ccccc1C)C(=O)[O-].[Li+]` [Example 438] as the molecule, how does the “% inhibition of farnesyltransferase” value read?
A: The value was 90%.

Q: Which “% inhibition of farnesyltransferase” value does the source give for `CSCC[C@H](NC(=O)c1ccc(/C=C/c2ccc(Oc3ccccc3[N+](=O)[O-])cc2)cc1-c1ccccc1C)C(=O)O` [Example 856] here?
A: The value was 97%.

Q: For `COc1ccccc1COCc1ccc(C(=O)N[C@@H](CCSC)C(=O)[O-])c(-c2ccccc2C)c1.[Li+]` [Example 931], which “% inhibition of farnesyltransferase” value is on record?
A: Its value is 98%.

Q: Which “% inhibition of farnesyltransferase” value does the source give for `CSCC[C@H](NC(=O)c1ccc(COCc2ccc(C)o2)cc1-c1ccccc1C)C(=O)O` [Example 532] here?
A: Its value is 88%.

Q: How did the “% inhibition of farnesyltransferase” value turn out when `CSCC[C@H](NC(=O)c1ccc(CSc2ccc(F)cc2)cc1-c1ccccc1C)C(=O)O` [Example 740] was run?
A: Its value is 94%.

Q: How did the “% inhibition of farnesyltransferase” value turn out when `CSCC[C@H](NC(=O)c1ccc(COCC2CCCCC2)cc1-c1ccccc1C)C(=O)[O-].[Li+]` [Example 585] was run?
A: Its value is 96%.

Q: How did the “% inhibition of farnesyltransferase” value turn out when `CSCC[C@H](NC(=O)c1ccc(COCC2CCC(c3ccc(Cl)cc3)O2)cc1-c1ccccc1C)C(=O)O` (stereo partly shown) [Example 822] was run?
A: Its value is 93%.

Q: For `CSCC[C@H](NC(=O)c1ccc(COc2cccc3ccccc23)cc1-c1ccccc1C)C(=O)O` [Example 574], which “% inhibition of farnesyltransferase” value is on record?
A: The value was 81%.

Q: Which “% inhibition of farnesyltransferase” value does the source give for `CSCC[C@H](NC(=O)c1ccc(COCc2ccc(-c3ccc(F)cc3)o2)cc1-c1ccc(F)cc1Cl)C(=O)[O-].[Li+]` [Example 869] here?
A: Its value is 92%.

Q: Which “% inhibition of farnesyltransferase” value does the source give for `CSCC[C@H](NC(=O)c1ccc(CN2CCC[C@@H]2COCc2ccccc2)cc1-c1ccccc1C)C(=O)O` [Example 993] here?
A: The value was 90%.

Q: With `CSCC[C@H](NC(=O)c1ccc(CCc2ccc(Oc3ccccc3)nn2)cc1-c1ccccc1C)C(=O)O` [Example 811] as the molecule, how does the “% inhibition of farnesyltransferase” value read?
A: The value was 85%.

Q: For `CSCC[C@H](NC(=O)c1ccc(CSCC2CCCCC2)cc1-c1ccccc1C)C(=O)[O-].[Li+]` [Example 559], which “% inhibition of farnesyltransferase” value is on record?
A: The value was 96%.

Same assay, conditions: at 1 × 10^-7 M; read-out: % inhibition of farnesyltransferase

Q: With `CSCC[C@H](NC(=O)c1ccc(CN(Cc2ccccc2)Cc2nccs2)cc1-c1ccccc1C)C(=O)O` [Example 548, N-[4-N-benzyl-N-(thiazol-2-ylmethyl)aminomethyl-2-(2-methylphenyl)benzoyl]methionine] as the molecule, how does the inhibition at 0.1 µM read?
A: Its inhibition at 0.1 µM is 86%.

Same assay, conditions: at 1 × 10^-8 M

Q: Which “% inhibition of farnesyltransferase” value does the source give for `CSCC[C@H](NC(=O)c1ccc(COCc2cccc(Cl)c2)cc1-c1ccccc1C)C(=O)[O-].[Li+]` [Example 934] here?
A: Its value is 71%.

Q: For `CCCCC(Cc1ccccc1Cl)OCc1ccc(C(=O)N[C@@H](CCSC)C(=O)O)c(-c2ccccc2C)c1` (stereo partly shown) [Example 943], which “% inhibition of farnesyltransferase” value is on record?
A: Its value is 79%.

Same assay, conditions: at 1 × 10^-8 M; read-out: % inhibition of farnesyltransferase

Q: With `CSCC[C@H](NC(=O)c1ccc(CN[C@H](CSc2ccccc2C)CC2CCCCC2)cc1-c1ccccc1C)C(=O)O` [Example 767, lithium salt] as the molecule, how does the inhibition at 0.01 µM read?
A: The inhibition at 0.01 µM was 97%.

Q: `COc1cccc(N(Cc2ccccc2)Cc2ccc(C(=O)N[C@@H](CCSC)C(=O)O)c(-c3ccccc3C)c2)c1` [Example 833, N-[4-N-benzyl-N-3-methoxyphenylaminomethyl-2-(2-methylphenyl)benzoyl]methionine lithium salt] was tested. Which inhibition at 0.01 µM did it give?
A: Its inhibition at 0.01 µM is 78%.

Q: Which inhibition at 0.01 µM does the source give for `CSCC[C@H](NC(=O)c1ccc(CN(Cc2ccccc2)c2ccc(Cl)cc2)cc1-c1ccccc1C)C(=O)O` [Example 848, N-[4-N-(N-benzyl-N-(4-chlorophenyl)aminomethyl)-2-(2-methylphenyl)benzoyl]methionine lithium salt] here?
A: The inhibition at 0.01 µM was 87%.

Q: With `CSCC[C@H](NC(=O)c1ccc(CN(Cc2cncs2)C2CCSCC2)cc1-c1ccccc1C)C(=O)O` [Example 881] as the molecule, how does the inhibition at 0.01 µM read?
A: The inhibition at 0.01 µM was 69%.

Q: How did the inhibition at 0.01 µM turn out when `CSCC[C@H](NC(=O)c1ccc(CN(Cc2ccccc2)c2cncnc2)cc1-c1ccccc1C)C(=O)O` [Example 836, N-[4-N-benzyl-N-pyrimidin-5-ylaminomethyl-2-(2-methylphenyl)benzoyl]methionine lithium salt] was run?
A: Its inhibition at 0.01 µM is 95%.

Same assay, conditions: read-out: % inhibition of farnesyltransferase

Q: With `CSCC[C@H](NC(=O)c1ccc(CN(CCC2CCCCC2)C(C)=O)cc1-c1ccccc1C)C(=O)O` [Example 609, N-[4-(N-acetyl-N-(2-cyclohexylethyl)aminomethyl)-2-(2-methylphenyl)benzoyl]methionine Lithium Salt] as the molecule, how does the inhibition at 0.1 µM read?
A: Its inhibition at 0.1 µM is 95%.

Q: `CSCC[C@H](NC(=O)c1ccc(CN(Cc2ccccc2)c2ccccc2[N+](=O)[O-])cc1-c1ccccc1C)C(=O)O` [Example 849, N-[4-(N-benzyl-N-(2-nitrophenyl)aminomethyl)-2-(2-methylphenyl)benzoyl]methionine lithium salt] was tested. Which inhibition at 0.1 µM did it give?
A: The inhibition at 0.1 µM was 66%.

Q: For `CSCC[C@H](NC(=O)c1ccc(CNCc2ccco2)cc1-c1ccccc1)C(=O)O` [Example 302, [4-(2-furylmethylaminomethyl)-2-phenylbenzoyl]methionine lithium salt], which inhibition at 1 µM is on record?
A: Its inhibition at 1 µM is 31%.
